Measurements reported in publication PMC8151276, “An Integrated Approach toward NanoBRET Tracers for Analysis of GPCR Ligand Engagement” (Molecules, 2021).

Columns and labels:
Assay type in all cases: binding
P2RY11 = target: T1, P2RY11 (Homo sapiens, UniProt Q96G91); experiment: NanoBRET screen HiBiT-P2RY11 in HEK293
T1 construct: purchased Promega (in-house HiBiT-GPCR construct library, NanoBRET)
T1 sequence (Q96G91 1-374): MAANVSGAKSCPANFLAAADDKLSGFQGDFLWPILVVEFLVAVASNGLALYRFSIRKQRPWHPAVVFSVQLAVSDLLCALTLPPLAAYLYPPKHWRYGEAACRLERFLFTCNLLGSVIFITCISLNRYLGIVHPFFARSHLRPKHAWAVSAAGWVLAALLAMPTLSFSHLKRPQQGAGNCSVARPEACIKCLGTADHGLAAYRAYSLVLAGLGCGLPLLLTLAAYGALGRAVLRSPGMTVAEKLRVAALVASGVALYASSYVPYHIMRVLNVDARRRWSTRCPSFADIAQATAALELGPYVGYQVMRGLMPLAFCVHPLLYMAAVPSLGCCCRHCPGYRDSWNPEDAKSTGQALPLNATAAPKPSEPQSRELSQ
Experimental: (§1) Each tracer candidate was screened across the entire library of HiBiT-GPCR constructs using NanoBRET as the detection modality. As depicted in Figure 4A, the specificity of interactions was evaluated through decrease in BRET due to competitive displacement of a bound tracer by excess parental compound. Each tracer was analyzed for binding to each HiBiT-GPCR fusion in the absence and in the presence of competing parental compound. Briefly, HEK293 cells were transfected with HiBiT-GPCR constructs diluted into promoterless DNA to reduce expression and maximize translocation to the cell surface. Each tracer candidate was then screened at concentrations of 1 μM and 0.1 μM across cells expressing these fusions. Cells were treated for 1.5 h with tracer either alone or in the presence of 20 μM competing parental compound (i.e., control). BRET was measured upon addition of purified LgBiT and subsequent complementation with HiBiT genetically fused to a GPCR. The specificity of interactions was assessed through a decrease in BRET signal due to competitive displacement of the bound tracer. To further gauge the robustness of these interactions, the fold response over the control (i.e., BRETtracer/BRETcontrol) was calculated. We chose a 1.5-fold response, which translates to ≥7-fold signal over noise as the minimal threshold required to score an interaction as positive. […]. Below we highlight the screening results obtained for our exemplary fluorescent tracers based on Clozapine, Amitriptyline and AZD1283.
(§2) HiBiT-GPCR DNA constructs were diluted in 10 mM Tris pH 8 to a final concentration of 0.01 μg/μL, arrayed in 96-well plates and stored at −20 °C. For transfection, HEK293 cells were suspended in Opti-MEM (without phenol red) supplemented with 2% fetal bovine serum (Seradigm) and 100 units/mL penicillin–streptomycin (Gibco) at a final concentration of 220,000 cells/mL and dispensed into white 96-well plates at 90 μL/well. Subsequent transfections and screens were carried using an Agilent Bravo Automated Liquid Handling Platform. First, the 96-well HiBiT DNA arrays were diluted 25-fold in Opti-MEM (without serum or phenol red) to a final concentration of 0.0004 μg/μL and 20 μL of the diluted DNAs were transferred into new 96-well plates. Next, promoterless carrier DNA (1 μg/μL) was diluted 25-fold (0.04 μg/μL) and then dispensed into the diluted arrays at 20 μL/well. Following brief mixing, Viafect transfection reagent (Promega) diluted 16-fold into Opti-MEM was dispensed into the plates at 40 μL/well. After mixing by pipetting, plates were incubated for 10 min on the pipetting station deck. The DNA-transfection reagent complexes were then added to plates containing cells. To facilitate the screen, 10 μL of DNA-transfection reagent complexes were added in duplicates to the top 4 and bottom 4 rows, resulting in two identical 48-well arrays per plate. Plates with transfected cells were incubated for 18–20 h at 37 °C/5% CO2. A screen of each tracer across the entire library using two different concentrations requires duplicate plates of transfected cells. Depending on the number of tracers being screened, transfections can be scaled up using the same ratios. The next day, for each tracer, four 20× screening solutions in tracer dilution buffer (Promega) were prepared: two duplicates at final concentration of 20 μM and two duplicates at a final concentration of 2 μM. A competing unmodified compound was added to one of each duplicate at a final concentration of 400 μM. The four resulting solutions were diluted 4-fold in Opti-MEM without serum or phenol red to generate 5× solutions (5 µM and 0.5 µM tracer +/− 100 μM competing compound). To screen the library, a BioTek MultiFlo FX liquid dispenser was used to dispense 22.5 µL of tracer solution to the top 4 rows and 22.5 µL tracer + competing compound solution to the 4 bottom rows. Plates were briefly mixed on an orbital shaker and incubated for 1.5 h at room temperature. […]

GABBR2 = target: T2, GABBR2 (Homo sapiens, UniProt O75899); experiment: NanoBRET screen HiBiT-GABBR2 in HEK293
T2 construct: purchased Promega (in-house HiBiT-GPCR construct library, NanoBRET)
T2 sequence (O75899 42-941): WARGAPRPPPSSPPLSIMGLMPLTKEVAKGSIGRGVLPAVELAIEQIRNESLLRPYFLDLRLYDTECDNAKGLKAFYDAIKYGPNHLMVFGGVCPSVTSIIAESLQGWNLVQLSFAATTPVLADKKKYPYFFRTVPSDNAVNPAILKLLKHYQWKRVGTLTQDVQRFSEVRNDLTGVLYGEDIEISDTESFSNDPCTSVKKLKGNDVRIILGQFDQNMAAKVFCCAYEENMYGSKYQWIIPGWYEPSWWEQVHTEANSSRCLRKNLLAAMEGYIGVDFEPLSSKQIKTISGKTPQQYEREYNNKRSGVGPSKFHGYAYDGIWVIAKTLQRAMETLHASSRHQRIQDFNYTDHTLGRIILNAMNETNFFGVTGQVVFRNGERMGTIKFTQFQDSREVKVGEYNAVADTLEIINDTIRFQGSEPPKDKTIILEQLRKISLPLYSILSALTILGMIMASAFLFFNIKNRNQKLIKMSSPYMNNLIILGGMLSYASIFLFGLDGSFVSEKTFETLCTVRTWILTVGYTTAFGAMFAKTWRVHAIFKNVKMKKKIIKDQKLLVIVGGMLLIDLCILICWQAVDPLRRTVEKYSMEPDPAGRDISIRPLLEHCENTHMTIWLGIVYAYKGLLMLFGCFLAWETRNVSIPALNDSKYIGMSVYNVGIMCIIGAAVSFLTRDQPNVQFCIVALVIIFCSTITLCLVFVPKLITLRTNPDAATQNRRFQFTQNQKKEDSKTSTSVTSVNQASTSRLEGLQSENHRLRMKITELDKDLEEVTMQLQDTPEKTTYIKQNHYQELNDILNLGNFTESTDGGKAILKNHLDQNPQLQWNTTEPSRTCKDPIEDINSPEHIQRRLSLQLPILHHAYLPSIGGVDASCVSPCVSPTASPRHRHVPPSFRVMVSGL
Experimental: as §1, §2

MCHR1 = target: T3, MCHR1 (Homo sapiens, UniProt Q99705); experiment: NanoBRET screen HiBiT-MCHR1 in HEK293
T3 construct: purchased Promega (in-house HiBiT-GPCR construct library, NanoBRET)
Experimental: as §1, §2

[1] = tracer at 0.1μM, listed as amitriptyline-b-2-NB590
[2] = tracer at 1μM, listed as amitriptyline-b-2-NB590

T3 sequence (Q99705 whole entry): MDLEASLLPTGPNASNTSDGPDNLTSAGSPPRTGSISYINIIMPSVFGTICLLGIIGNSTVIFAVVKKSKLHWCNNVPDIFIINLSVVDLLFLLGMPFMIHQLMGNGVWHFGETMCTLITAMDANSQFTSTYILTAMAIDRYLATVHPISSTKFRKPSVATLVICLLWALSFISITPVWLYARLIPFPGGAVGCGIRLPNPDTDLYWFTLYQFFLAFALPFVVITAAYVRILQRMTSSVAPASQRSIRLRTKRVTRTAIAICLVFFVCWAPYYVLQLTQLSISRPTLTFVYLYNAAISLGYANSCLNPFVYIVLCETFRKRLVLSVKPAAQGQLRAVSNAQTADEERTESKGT

Structure (SMILES)	NanoBRET Fold Response (P2RY11; P2RY11, tracer 0.1μM)	NanoBRET Fold Response (P2RY11; P2RY11, tracer 1μM)	NanoBRET Fold Response (GABBR2; GABBR2, tracer 0.1μM)	NanoBRET Fold Response (GABBR2; GABBR2, tracer 1μM)	NanoBRET Fold Response (MCHR1; MCHR1, tracer 0.1μM)	NanoBRET Fold Response (MCHR1; MCHR1, tracer 1μM)	NanoBRET Fold Response (P2RY11; [1])	NanoBRET Fold Response (P2RY11; [2])	NanoBRET Fold Response (GABBR2; [1])	NanoBRET Fold Response (GABBR2; [2])	NanoBRET Fold Response (MCHR1; [1])	NanoBRET Fold Response (MCHR1; [2])
N#CN=C(NCCCOc1cccc(CN2CCCCC2)c1)NCCNC(=O)CCOCCOCCOCCOCCNC(=O)CCc1ccc2n1[B-](F)(F)[N+]1=C(c3ccc[nH]3)C=CC1=C2 [Aminopotentidine-2-NB590]	1.14	1.03	1.03	0.94	0.99	0.95						
Cc1nc2n(c(=O)c1CCN1CCC(c3noc4cc(F)ccc34)CC1)CCCC2OC(=O)NCCOCCOCCOCCOCCNC(=O)CCc1ccc2n1[B-](F)(F)[N+]1=C(c3ccc[nH]3)C=CC1=C2 (stereo not drawn) [Risperidone-2-NB590]	1.04	0.88	1.07	1.17	0.94	0.97						
CN(C)CCC=C1c2ccccc2CCc2ccc(C(=O)NCCNC(=O)CCOCCOCCOCCOCCNC(=O)CCc3ccc4n3[B-](F)(F)[N+]3=C(c5ccc[nH]5)C=CC3=C4)cc21 [Amitriptyline-b-2-NB590]							0.88	0.96	1.13	1.30	0.79	1.01
